Measurements taken from patent US20260001928A1 (CORTERIA PHARMACEUTICALS, priority 2022, published 2026).
*1 amine or outer side, *2 acyl side, *3 side chain or, on linkers, in order; H or OH if unused. Where a SMILES comes first, the peptide text is derived from it. Side-chain parts run from the residue outwards. The star is where a group is joined. C18 diacid = O=C(O)CCCCCCCCCCCCCCCCC(=O)*; γGlu = O=C(O)[C@H](CCC(=O)[*:2])N[*:1]; AEEA = NCCOCCOCC(=O)O

Columns and labels:
[1] = subcutaneous tissue supernatant (SCts); conditions: male Sprague Dawley rats, 37° C., up to 2 hours
[2] = In vitro subcutaneous tissue supernatant (SCts) stability and metabolite identification, rat; format: in vitro ADME; conditions: in vitro soft spot identification, rat SCts
[3] = In vivo metabolite identification on rat plasma samples after SC administration; conditions: rat plasma after SC administration at 1 mg/kg
Description: Software aided in vitro metabolite identification on SCts stability samples was performed using either Metabolite Pilot (Sciex) or Biopharma Finder (Thermo). In addition, metabolite identification using Metabolite Pilot was performed on plasma samples of Comp Y following SC administration to rat at 1 mg/kg.

[4] = Dog PLM; conditions: 37° C., up to 2 hours
[5] = Rat PLM; conditions: male Sprague Dawley rats, 37° C., up to 2 hours
[6] = Human PLM; conditions: 37° C., up to 2 hours

Ac-IVLSLDvPIKLK*KILLEQEKQKAibQREQAETNAibQILAQV-NH2
not cleaved [1]: 95% remaining at 2 h

CC[C@H](C)[C@H](N)C(=O)N[C@H](C(=O)N[C@@H](CC(C)C)C(=O)N[C@@H](CO)C(=O)N[C@@H](CC(C)C)C(=O)N[C@@H](CC(=O)O)C(=O)N[C@H](C(=O)N1CCC[C@H]1C(=O)N[C@H](C(=O)N[C@@H](CCCCN)C(=O)N[C@@H](CC(C)C)C(=O)N[C@@H](CCCCNC(=O)COCCOCCNC(=O)COCCOCCNC(=O)CC[C@H](NC(=O)CCCCCCCCCCCCCCCCC(=O)O)C(=O)O)C(=O)N[C@@H](CCCCN)C(=O)N[C@H](C(=O)N[C@@H](CC(C)C)C(=O)N[C@@H](CC(C)C)C(=O)N[C@@H](CCC(=O)O)C(=O)N[C@@H](CCC(N)=O)C(=O)N[C@@H](CCC(=O)O)C(=O)N[C@@H](CCCCN)C(=O)N[C@@H](CCC(N)=O)C(=O)N[C@@H](CCCCN)C(=O)N[C@@H](CCCCN)C(=O)N[C@@H](CCC(N)=O)C(=O)N[C@@H](CCCNC(=N)N)C(=O)N[C@@H](CCC(=O)O)C(=O)N[C@@H](CCC(N)=O)C(=O)N[C@@H](C)C(=O)N[C@@H](CCC(=O)O)C(=O)N[C@H](C(=O)N[C@@H](CC(N)=O)C(=O)N[C@@H](CCCCN)C(=O)N[C@@H](CCC(N)=O)C(=O)N[C@H](C(=O)N[C@@H](CC(C)C)C(=O)N[C@@H](C)C(=O)N[C@@H](CCC(N)=O)C(=O)N[C@H](C(N)=O)C(C)C)[C@@H](C)CC)[C@@H](C)O)[C@@H](C)CC)[C@@H](C)CC)C(C)C)C(C)C [SEQ ID No. 149, reference compound] (H-IVLSLDVPIKLK([AEEA-AEEA-γGlu-C18 diacid])KILLEQEKQKKQREQAETNKQILAQV-NH2)
major metabolic soft spot, in vitro [2]: N-terminus
major metabolic soft spot, in vivo [3]: N-terminus

NMeIVLSLDvPIKLK*KILLEQEKQKEQREQAETNAibQILAQV-NH2 [218]
percent remaining [4]: 102% remaining at 2 hours
not cleaved [5]: 109% remaining at 2 hours
not cleaved [6]: 99% remaining at 2 hours

NMeIVLSLDvPIKLK*KILLEQEKQKEQREQAETNAibQILAQV-NH2 [233]
percent remaining [4]: 99% remaining at 2 hours
not cleaved [5]: 106% remaining at 2 hours
not cleaved [6]: 100% remaining at 2 hours
